Laboratory results reported in patent US9656978B2, “Acylpiperazines as inhibitors of transglutaminase and their use in medicine” (ASTON UNIVERSITY, priority 2012, dated 2017).

Legend:
[1] = target: T1, purified recombinant human TG2 (tissue transglutaminase) (Homo sapiens, UniProt P21980); experiment: TG2 transamidation activity, biotin X-cadaverine incorporation into N,N′-dimethylcasein (Example 2); format: biochemical; settings: recombinant human TG2 400 ng/ml, 2 h at 37° C.
T1 construct: purchased Zedira, Germany
T1 sequence (P21980 1-687): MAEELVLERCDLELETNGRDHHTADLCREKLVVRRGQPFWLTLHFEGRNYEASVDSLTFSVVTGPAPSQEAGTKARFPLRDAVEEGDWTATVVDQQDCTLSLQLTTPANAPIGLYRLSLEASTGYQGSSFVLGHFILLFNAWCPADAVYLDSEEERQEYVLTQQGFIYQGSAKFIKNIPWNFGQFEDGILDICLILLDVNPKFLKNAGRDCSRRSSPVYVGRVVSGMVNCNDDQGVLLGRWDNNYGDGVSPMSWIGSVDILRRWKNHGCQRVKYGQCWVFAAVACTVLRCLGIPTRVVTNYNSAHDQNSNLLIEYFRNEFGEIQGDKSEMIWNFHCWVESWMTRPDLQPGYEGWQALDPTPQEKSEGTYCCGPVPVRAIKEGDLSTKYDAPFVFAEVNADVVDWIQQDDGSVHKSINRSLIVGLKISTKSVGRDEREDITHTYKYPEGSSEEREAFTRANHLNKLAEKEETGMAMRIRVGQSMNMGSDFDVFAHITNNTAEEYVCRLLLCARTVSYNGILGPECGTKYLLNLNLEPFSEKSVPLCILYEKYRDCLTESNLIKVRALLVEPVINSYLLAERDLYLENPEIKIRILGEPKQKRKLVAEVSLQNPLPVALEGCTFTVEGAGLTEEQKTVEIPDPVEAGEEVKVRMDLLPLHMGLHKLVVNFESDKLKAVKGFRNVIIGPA
Procedure: TG transamidation activity and the affect of inhibitors on activity was measured by biotin X-cadaverine incorporation into N,N′-dimethylcasein. After coating 96 well plates with 100 μl of 10 mg/ml N,N′-dimethylcasein in 50 mM Tris-Cl, pH8 at 4° C. over night, plates were washed with TBS-0.05% Tween-20(v/v), pH 7.6 and TBS, pH 7.6, and 100 μl purified recombinant human TG2 (400 ng/ml Zedira, Germany) (tissue transglutaminase) in 50 mM Tris-HCl, pH7.4, containing 1 mM DTT, 10 mM CaCl2 and 0.1 μM biotin-cadaverine added into the coated wells containing the appropriate concentration of inhibitor. The reaction was allowed to proceed for 2 h at 37° C. The plate was then washed twice with TBS-Tween-20 (v/v), pH 7.6 and once with TBS, pH 7.6 before being blocked with 100 μl of blocking buffer (3% (w/v) BSA in TBS-Tween, pH 7.6) for 30 min at 37° C. After blocking, the wells were incubated with 100 μl HRP-conjugated Extr-Avidin peroxidase (Sigma-Aldrich, UK) in blocking buffer (1:1,000 dilution) for 1 h at 37° C. After another set of washes, TG2 activity was measured using Sigma Fast OPD, tablets dissolved in 20 ml of distilled H2O. The colour was developed by adding 2.5 M H2SO4 and the absorbance at 490 nm measured using a microplate reader ELx808™. All inhibitors were dissolved in DMSO as a 100 mM solution prior to addition to the assay.

Factor X111a = target: T2, Factor X111a (Homo sapiens, UniProt P00488); experiment: TG-CovTest commercial microassay, Factor X111a; format: biochemical; settings: read-out: Estimated IC50 FXIII
T2 sequence (P00488 39-732 limits assumed): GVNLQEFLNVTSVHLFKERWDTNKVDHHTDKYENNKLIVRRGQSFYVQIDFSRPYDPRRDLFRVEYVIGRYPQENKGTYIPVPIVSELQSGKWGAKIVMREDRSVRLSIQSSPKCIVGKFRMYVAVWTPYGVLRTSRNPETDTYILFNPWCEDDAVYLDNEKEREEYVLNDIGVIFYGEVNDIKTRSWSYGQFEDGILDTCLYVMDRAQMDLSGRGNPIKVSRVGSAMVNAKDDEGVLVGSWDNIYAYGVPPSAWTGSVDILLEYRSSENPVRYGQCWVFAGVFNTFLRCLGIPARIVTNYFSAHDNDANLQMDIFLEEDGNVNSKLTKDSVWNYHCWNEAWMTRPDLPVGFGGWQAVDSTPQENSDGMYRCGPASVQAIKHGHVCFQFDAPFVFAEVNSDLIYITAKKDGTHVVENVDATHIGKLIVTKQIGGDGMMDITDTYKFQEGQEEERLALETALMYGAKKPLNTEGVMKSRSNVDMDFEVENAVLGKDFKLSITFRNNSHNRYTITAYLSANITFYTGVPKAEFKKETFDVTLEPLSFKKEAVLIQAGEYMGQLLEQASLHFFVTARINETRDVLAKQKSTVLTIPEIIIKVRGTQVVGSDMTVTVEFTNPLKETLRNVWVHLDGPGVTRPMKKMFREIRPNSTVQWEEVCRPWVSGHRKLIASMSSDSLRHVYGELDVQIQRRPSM
Source text: For determination of the activity of transglutaminase 1,transglutaminase 3 and Factor X111a, a commercial microassay was used, TG-CovTest (Covalab, Lyon, France; see also Perez et al. Anal Biochem. 2009; 389:150-156).

Compound	IC50 [1]	melting point	IC50 (Factor X111a)
C=CS(=O)(=O)NCC(=O)N1CCN(C(=O)C23CC4CC(CC(C4)C2)C3)CC1 [Compound 8e, N-[2-[4-(adamantane-1-carbonyl)piperazin-1-yl]-2-oxo-ethyl]ethenesulfonamide]		159 to 160 °C	
C[S+](C)CC(=O)NCC(=O)N1CCN(C(=O)OCC23CC4CC(CC(C4)C2)C3)CC1 [EB 1-178]			> 100 µM
CN(C)c1cccc2c(S(=O)(=O)N3CCN(C(=O)CNC(=O)C[S+](C)C)CC3)cccc12.[Br-]		98 to 99 °C	
C[S+](C)CC(=O)NCC(=O)N1CCN(C(=O)OC(C)(C)C)CC1 [EB 1-46]	0.07 ± 0.007 µM		> 100 µM
Cc1c(C)[n+](C)c(SCC(=O)NCC(=O)N2CCN(C(=O)OC(C)(C)C)CC2)n1C [EB 1-45]	400 µM		
COC(=O)c1ccc2cc(COC(=O)N3CCN(C(=O)CNC(=O)C[S+](C)C)CC3)ccc2c1.[Br-]		125 to 126 °C	
O=C(CBr)NCC(=O)N1CCN(C(=O)C23CC4CC(CC(C4)C2)C3)CC1 [EB 2-17]			< 100 µM
CC(C)(C)OC(=O)N1CCN(C(=O)CNC(=O)CBr)CC1 [EB 1-37]	0.008 ± 0.003 µM		
C[S+](C)CC(=O)NCC(=O)N1CCN(C(=O)C23CC4CC(CC(C4)C2)C3)CC1 [EB 2-18]			> 100 µM
C=CC(=O)NCC(=O)N1CCN(C(=O)OCc2ccc3cc(C(=O)OC)ccc3c2)CC1 [EB 1-136]			> 100 µM
C=CC(=O)NCC(=O)N1CCN(C(=O)OCCC23CC4CC(CC(C4)C2)C3)CC1 [EB 1-181]			> 100 µM
O=C(CBr)NCC(=O)N1CCN(C(=O)OCCC23CC4CC(CC(C4)C2)C3)CC1 [EB 1-177]	0.0063 ± 0.00049 µM		> 100 µM
CN(C)c1cccc2c(S(=O)(=O)N3CCN(C(=O)CNC(=O)CCl)CC3)cccc12 [EB 2-57]	0.0059 ± 0.00014 µM		

Continued, values first:

IC50 [1]	melting point	IC50 (Factor X111a)	Compound
0.75 ± 0.07 µM			O=C(CBr)NCC(=O)N1CCN(C(=O)OCc2ccccc2)CC1 [EB 1-32]
		> 100 µM	C[S+](C)CC(=O)NCC(=O)N1CCN(C(=O)OCc2ccc3ccccc3c2)CC1 [EB 1-91]
		> 100 µM	C[S+](C)CC(=O)NCC(=O)N1CCN(C(=O)OCc2ccccc2)CC1 [EB 1-33]
0.048 ± 0.006 µM			C[C@H](NC(=O)CBr)C(=O)N1CCN(C(=O)OCc2ccccc2)CC1 [EB 1-101]
		> 100 µM	C=CC(=O)NCC(=O)N1CCN(C(=O)OCc2ccc3ccccc3c2)CC1 [EB 1-81]
	66 to 67 °C		C=CS(=O)(=O)NCC(=O)N1CCN(C(=O)OCc2ccccc2)CC1 [Compound 8a, benzyl 4-[2-(vinylsulfonylamino)acetyl]piperazine-1-carboxylate]
0.066 ± 0.001 µM			C[C@@H](NC(=O)CBr)C(=O)N1CCN(C(=O)OCc2ccccc2)CC1 [EB 1-100]
		< 100 µM	COC(=O)c1ccc2cc(COC(=O)N3CCN(C(=O)CNC(=O)CBr)CC3)ccc2c1 [EB 1-137]
4.25 ± 0.78 µM			CC(=O)NCC(=O)N1CCN(C(=O)OCc2ccccc2)CC1 [EB 1-44]
